According to publication PMC5081312, “Antifouling phenyl ethers and other compounds from the invertebrates and their symbiotic fungi collected from the South China Sea” (AMB Express, 2016):
≈ marks a conversion by molar mass, not a printed value. Where two headings read alike, the source gives them in different places.

Key:
[1] = test system: cyprids of barnacle B. amphitrite; experiment: Anti-larval settlement bioassay (antifouling activity and larval toxicity); assay type: in vivo; conditions: for EC50: read-out: EC50 (larval settlement inhibition); for LC50/EC50 ratio (therapeutic ratio): B. amphitrite cyprids, ratio >15 considered non-toxic; for LC50: concentration where 50% of larvae were dead
Procedure: (§1) The newly released nauplii were screened with the aperture of 90 μm. The newly released nauplii were raised in filtered seawater (FSW) at 28 °C with mild aeration and fed with Chaetoceros gracilis Schutt at 1 × 10^6 cells ml^−1. The nauplius larvae transformed into cyprids (ready to attach and metamorphose) after 3.5 days. Newly transformed cyprids were kept in filtered seawater at 4 °C overnight before being used in the anti-larval settlement bioassay.
(§2) The antifouling activity was evaluated as larval settlement inhibition against the cyprids of barnacle B. amphitrite using 24-well polystyrene plates (Nunc, Naperville, CA, USA). Each compound was dissolved in a stock solution of DMSO with the concentration of 50 mg ml^−1, and then diluted 1000 times with FSW to 50 μg ml^−1. The compound was further transferred into FSW to make up the following test solution with the concentrations ranging from 25 to 0.50 μg ml^−1. One millilitre of the test solution and 16–20 larvae were allocated to each well of the 24-well plate. Each concentration had three replicate wells. The plates were cultivated in darkness for 48 h at 28 °C. The effects of the test compounds against the larvae settlement were determined by examining the plates under a dissecting microscope to check for (1) settled larvae (attached and metamorphosed), (2) swimming larvae, as well as (3) any possible toxic effects of the treatments (dead and paralyzed). The number of the settled larvae was expressed as a percentage of the total number of larvae per well. Each compound was tested by triplicate experiments using three different batches of larvae.
(§3) The EC50 and LC50 values of each compound were calculated according to the records of anti-larval settlement experiments. […] Then a concentration–response curve was plotted and a tread line was set up.

[2] = as above; assay type: in vivo; conditions: Balanus (Amphibalanus) amphitrite (barnacle cyprid larvae), in vivo, cyprids of B. amphitrite, 48 h at 28 °C, concentration where 50% of larvae were dead; for LC50 at 48 h: other: larvae immersed in test solution
Procedure: as §1, §2, §3

[3] = in vivo; conditions: Artemia salina (brine shrimp), in vivo
Procedure: (§4) The brine shrimp lethality bioassay on Artemia salina was performed to predict the toxicity of the compounds. The test was conducted using 24-well plate as described previously according to standard protocols (Solis et al. [1993]; Meyer et al. [1982]). The wells containing FSW-DMSO (v/v 1:1000) served as the negative controls. Adriamycin was used as a positive control. There were three replicate wells per concentration, and each bioassay experiment had three replicates using three different batches of brine shrimp.

[4] = test system: cyprids of barnacle B. amphitrite; design: method as in Jacobson and Willingham [2000]; conditions: concentration used for positive control; ref Jacobson and Willingham [2000]; cited from earlier work
[5] = test system: brine shrimps Artemia salina; experiment: in vivo; conditions: read-out: LC50 (brine shrimp lethality); Artemia salina
Procedure: as §4

[6] = Amphibalanus amphitrite, cyprids of B. amphitrite, 48 h at 28 °C, concentration where 50% of larvae were inhibited to settle vs negative control
[7] = Amphibalanus amphitrite, 48 h, cyprids of B. amphitrite, 48 h at 28 °C, concentration where 50% of larvae were inhibited to settle vs negative control
[8] = LC50 (brine shrimp lethality), Artemia salina
[9] = cyprids of B. amphitrite, 48 h at 28 °C
[10] = cyprids of B. amphitrite, 48 h at 28 °C, concentration where 50% of larvae were inhibited to settle vs negative control

Row | Structure (SMILES) | LC50/EC50 ratio (therapeutic ratio) [1] | EC50 [1, 7] | LC50 at 48 h [2] | other results
1 | CO[C@H]1[C@@H](O)CC/C(C)=C/[C@H]2C=C(C)[C@@H](C)[C@H]3[C@H](CC(C)C)NC(=O)[C@]32C(=O)C[C@@H]1O [compound 46, Aspochalasin K] | >6.65 |  |  | EC50 [1, 6]: 17.3 µM; LC50 [2]: > 115 µM
2 | Cc1cc(O)cc(Oc2cc(C)cc(O)c2O)c1 [compound 2, Cordyol C] | >3.54 | 57.3 µM | > 203 µM | LC50 [3, 8]: 126 µM
3 | Cc1c(Br)c(O)c(Br)c(Oc2c(Br)c(C)c(Br)c(O)c2Br)c1Br [compound 13, 2,4,6,2′,4′,6′-Hexabromo-diorcinol] |  |  |  | EC50 [1, 6]: 0.71 µM; LC50 [2]: 22 µM; LC50 [3]: 35.6 µM
4 | CCCCCCCCn1sc(Cl)c(Cl)c1=O [Sea-Nine 211™, reference compound] | 20.3 |  |  | LC50 [1, 9]: 88.7 µM; EC50 [1, 10]: 4.36 µM; EC50 value against B. amphitrite [4]: 1.23 µg/mL (≈ 4.36 µM)
5 | CC(=O)Oc1cc(C)cc(Oc2cc(C)cc(OC(C)=O)c2)c1 [compound 11, 3,3′-O-diacetyl-diorcinol] |  |  | 49.4 µM | 
6 | CCCCCOc1cc(C)cc(Oc2cc(C)cc(O)c2)c1 [compound 8, 3-O-pentyl-diorcinol] | >5.99 | 27.9 µM | > 167 µM | 
7 | CC1=CC(=O)c2c(C)cc3oc(=O)c(C)c-3cc21 [compound 21, Ketolactone] |  | > 104 µM | > 208 µM | 
8 | Cc1cc(O)cc(Oc2cc(C)cc(OC(=O)c3ccccc3)c2)c1 [compound 10, 3-O-benzoyl-diorcinol] | >11.9 | 12.6 µM | > 150 µM | LC50 [3, 8]: > 150 µM
9 | CC(=O)Oc1cc(C)cc(Oc2cc(C)cc(O)c2)c1 [compound 9, 3-O-acetyl-diorcinol] |  |  | 64.3 µM | 
10 | COc1cc(C)cc(Oc2cc(C)cc(O)c2)c1 [compound 4, Cordyol E] | >6.61 | 31 µM | > 205 µM | LC50 [3, 8]: 41 µM
11 | COC(=O)c1c(C)c(Br)c(Oc2c(Br)c(C)c(Br)c(O)c2Br)c(Br)c1O [compound 14, 2,6,2′,4′,6′-Pentabromo-4-methoxycarbonyl-diorcinol] |  |  |  | EC50 [1, 6]: 1.17 µM; LC50 [2]: 29.3 µM; LC50 [3]: > 73.3 µM
12 | CC1=C[C@@H]2/C=C(\C)CC[C@H](O)[C@H](O)[C@@H](O)CC(=O)[C@]23C(=O)N[C@@H](CC(C)C)[C@@H]3[C@@H]1C [compound 47, Aspochalasin E] | >3.70 |  |  | EC50 [1, 6]: 32.2 µM; LC50 [2]: > 119 µM
13 | CCCOc1cc(C)cc(Oc2cc(C)cc(O)c2)c1 [compound 7, 3-O-propyl-diorcinol] | 11.4 | < 10 µM | 112 µM | EC50 [1, 10]: 9.82 µM
14 | Cc1cc(O)cc(Oc2cc(C)cc(O)c2)c1 [compound 1, Diorcinol] | >6.67 | 32.6 µM | > 217 µM | LC50 [3, 8]: 126 µM
15 | Cc1cc(O)cc(Oc2cc(C)cc(OC(=O)c3ccc(Br)cc3)c2)c1 [compound 15, 3-O-p-Bromobenzoyl-diorcinol] |  | 2.42 µM | 60.5 µM | LC50 [3, 8]: > 121 µM
16 | COc1cc(C)cc(Oc2cc(C)cc(OC)c2O)c1O [compound 5, 3,3′-O-dimethylviolaceol-I] | >9.35 | 18.4 µM | > 172 µM | LC50 [3, 8]: 172 µM
17 | Cc1cc(C=O)c2c(C)cc3c(cc1-2)[C@@H](C)CO3 [compound 18, Ochracenoid A] |  | 83.3 µM | 208 µM | 
18 | COc1cccc2c1C(=O)c1c(O)c3c(c(O)c1C2=O)C[C@@](O)(C(=O)CO)C[C@@H]3O[C@H]1C[C@H](N)[C@H](O)[C@H](C)O1 [Adriamycin, reference compound] |  |  |  | LC50 [3]: 12 µM
19 | Cc1cc(C=O)c2c(C)ccc(C(C)C)cc1-2 [compound 16, 1-Formylguaiazulene] |  | 42 µM | 221 µM | 
20 | COc1cc(C)c(C(=O)O[C@@H]2[C@H](OC(C)=O)[C@@H](COC(C)=O)O[C@H]2n2ccc(=O)[nH]c2=O)c(OC)c1 [compound 51, Diacetylkipukasin E] | >2.22 |  |  | LC50 [1, 9]: > 98.8 µM; EC50 [1, 10]: 44.5 µM
21 | CCCCCOc1cc(C)cc(Oc2cc(C)cc(OCCCCC)c2)c1 [compound 12, 3,3′-O-dipentyl-diorcinol] | >11.1 | 12.2 µM | > 135 µM | 
22 | C=C(CCC(C)C1CCC(C2=CC(O)C3CC(O)CCC3(C)C2=O)C1(C)CCO)C(C)C (stereo not drawn) [compound 27, 3β,6α,11-Trihydroxy-9,11-seco-5α-cholesta-7,24(28)-dien-9-one] |  |  |  | LC50 [1, 9]: > 56.1 µM; EC50 [1, 10]: > 56.1 µM
23 | CC1=CC(=O)c2c(C)cc(C(=O)C(C)C)cc21 [compound 20, Ochracenoid B] |  |  |  | LC50 [1, 9]: > 219 µM; EC50 [1, 10]: > 110 µM
24 | COc1cc(C)cc(Oc2cc(C)cc(OC)c2OC)c1O [compound 6, Cordyol D] | >9.01 | 18.2 µM | > 164 µM | LC50 [3, 8]: 164 µM
25 | C=CC(C)(C)c1[nH]c2c(CC=C(C)C)cc(CC=C(C)C)cc2c1C[C@@H]1NC(=O)[C@H](C)NC1=O [compound 44, Echinulin] |  |  |  | EC50 ([1]; Amphibalanus amphitrite, 48 h): > 54.2 µM; LC50 [2]: > 108 µM
26 | C/C(=C\[C@H](O)C[C@@H](C)CCCc1ccoc1)CCCc1ccoc1 [compound 22, Furospongin-1] | 25.2 | 6.05 µM | 153 µM | inhibition of larval settlement in preliminary screening ([1]; B. amphitrite, at 25.0 μg ml^−1): completely inhibited; EC50 [1, 10]: 6.06 µM
27 | COC(=O)c1c(C)cc(Oc2cc(C)cc(O)c2)cc1O [compound 3, 4-Methoxyacyl-diorcinol] |  | < 10 µM | > 174 µM | EC50 [1, 10]: 7.43 µM; LC50 [3, 8]: ≥ 34.7 µM; LC50 [5]: 34.7 µM
